Measurements as given in patent US20170008888A1 (KYORIN PHARMACEUTICAL CO., LTD., priority 2014, published 2017).
Where two headings read alike, the source gives them in different places.

System: murine Th17 cells
Experiment: Cytokine response by in vitro-polarized murine Th17 cells stimulated with PMA/ionomycin
Assay type: cell-based
Settings: Mus musculus, PMA/ionomycin 20 h
Method: Purification of murine CD4+ T cells: To isolate mouse splenocytes, freshly isolated mouse spleens were minced in culture media (RPMI 1640 (Lonza, Allendale, N.J.) containing 10% (v/v) charcoal-dextran filtered, heat inactivated FBS (Omega Scientific, Tarzana, Calif.), 0.05 mM 2-Mercaptoethanol (Sigma-Aldrich, St. Louis, Mo.), and 1×Pen/Strep Amphotericin B (Lonza)), using a sterile razor blade then pushed through 70 and 40 μm cell strainers. Cells were resuspended in ACK Lysing Buffer (Lonza) for 3 minutes at room temperature to lyse the red blood cells. CD4+ T cells were isolated from the mouse splenocytes using the EasySep negative selection mouse CD4+ T cell isolation kit (Stemcell, Vancouver, Canada) according to manufacturer's instructions briefly as follows: Unwanted cells were specifically labeled by incubation with a cocktail of biotinylated antibodies directed against cell surface antigens on mouse cells of hematopoietic origin (CD8a, CD11b, CD11c, CD19, CD45R/B220, CD49b, TCRγ/δ, and TER119). Labeled cells were then magnetically removed using streptavidin-bound magnetic beads, leaving the desired CD4+ T cells.
In vitro mouse Th17 differentiation: Mouse CD4+ T cells isolated as above were polarized into Th17 cells as follows: Tissue culture-treated 100 mm plates (Corning, Corning, N.Y.) were coated with 2 μg/ml purified NA/LE hamster anti-mouse CD3e clone 145-2C11 antibody (BD Biosciences, San Jose, Calif.) overnight at 4° C. Each coated plate was seeded with ˜2-3 e6 mouse CD4+ T cells in polarization media consisting of culture media (RPMI 1640/FBS/2-Mercaptoethanol/Pen/Strep Amphotericin B) supplemented with: recombinant mouse IL-6 (50 ng/ml), […] (50 ng/ml), IL-23 (50 ng/ml)(R&D Systems, Minneapolis, Minn.), recombinant human TGF1β (5 ng/ml) (Cell Signaling Technology, Danvers, Mass.), anti-CD28 clone 37.51 (10 μg/ml)(BD Biosciences, San Jose, Calif.), anti-IL-2 clone JES6-1A12 (1 μg/ml), anti-IL-4 clone 11B11 (10 μg/ml), and anti-IFNγ clone XMG1.2 (10 μg/ml). All recombinant mouse cytokines and anti-mouse neutralizing antibodies were purchased from eBioscience (San Diego, Calif.) unless otherwise specified. Cells were incubated in the above Polarization media for 3 d at 37° C. in a humidified atmosphere at 5% CO2. After 3 d, cells were re-polarized as above, except for the following cytokine and neutralizing antibody concentration changes: recombinant mouse IL-6 (40 ng/ml), recombinant human TGFβ (1 ng/ml), anti-CD28 clone 37.51 (5 μg/ml), anti-IL-2 clone JES6-1A12 (0.5 μg/ml), anti-IL-4 clone 11B11 (5 μg/ml), and anti-IFNγ clone XMG1.2 (5 μg/ml). Cells were maintained under the above conditions for an additional 3 d at 37° C. in humidified atmosphere at 5% CO2 for a total of 6 days of polarization.
Inhibition of cytokine response by in vitro-polarized murine Th17 cells stimulated with PMA/ionomycin: Murine Th17 cells, polarized as described above, were seeded at 2e6 cells/ml in culture media. Cells were pre-treated with test compounds (10 μM down by ⅕ in a 4-point serial dilution series) for 1 h at 37° C. in a humidified atmosphere at 5% CO2. Cells were then stimulated with 50 ng/ml phorbol 12-myristate 13-acetate (PMA)(Sigma-Aldrich, St. Louis, Mo.)+1 μg/ml ionomycin (Life Technologies, Grand Island, N.Y.) for 20 h at 37° C. in a humidified atmosphere at 5% CO2. Supernatant was collected and analyzed using Bio-Plex Pro Mouse Cytokine Th17 Panel A 6-Plex and the Bio-Plex Pro Mouse Cytokine Th17 Panel B 8-Plex (Bio-Rad Laboratories, Hercules, Calif.) as per manufacturer's protocols. Magnetic beads were read on the Bio-Plex MAGPIX multiplex reader instrument using the accompanying xPONENT 4.2 acquisition software (Bio-Rad Laboratories, Hercules, Calif.). Data were analyzed via the Bio-Plex Manager software v6.1 (Bio-Rad Laboratories).

[1] = read-out: EC50 (nM) of cytokine reduction, IFNγ
[2] = read-out: EC50 (nM) of cytokine reduction, IL-6
[3] = read-out: EC50 (nM) of cytokine reduction, IL-10
[4] = read-out: EC50 (nM) of cytokine reduction, IL-17A
[5] = read-out: EC50 (nM) of cytokine reduction, IL-21
[6] = read-out: EC50 (nM) of cytokine reduction, IL-22
[7] = read-out: EC50 (nM) of cytokine reduction, IL-23p19

Row | Structure (SMILES) | EC50 [1] | EC50 [2] | EC50 [3] | EC50 [4] | EC50 [5] | EC50 [6] | EC50 [7]
1 | CCOc1cc(C(=O)N2CCC(N3CCN(C)CC3)CC2)ccc1Nc1cc2c(cn1)N(C)C(=O)c1occc1N2C [Compound 65] | > 10000 nM | 2380 nM | 979 nM | > 10000 nM | 8280 nM | 5080 nM | 940 nM
2 | CCOc1cc(C(=O)NCC2CC2)ccc1Nc1cc2c(cn1)N(C)C(=O)c1ccccc1N2C [Compound 57] | 6930 nM | 2920 nM | 2150 nM | > 10000 nM | 3990 nM | 2120 nM | 840 nM
3 | CCOc1cc(C(=O)N2CCC(N3CCCC3)CC2)ccc1Nc1cc2c(cn1)N(C)C(=O)c1ccccc1N2C [Compound 46, 3-(2-Ethoxy-4-(4-(pyrrolidin-1-yl)piperidine-1-carbonyl)phenylamino)-5,11-dimethyl-5H-benzo[e]pyrido[3,4-b][1,4]diazepin-10(11H)-one] | 4270 nM | 1740 nM | 577 nM | > 10000 nM | 4850 nM | 2630 nM | 480 nM
4 | CCOc1cc(C(=O)N2CC[C@@H](N(C)C)C2)ccc1Nc1cc2c(cn1)N(C)C(=O)c1ccccc1N2C [Compound 115] | 1770 nM | 1170 nM | 373 nM | 4980 nM | 2110 nM | 880 nM | 360 nM
5 | CCOc1cc(C(=O)N2CCNCC2)ccc1Nc1cc2c(cn1)N(C)C(=O)c1ccccc1N2C [Compound 62] | 8540 nM | 2480 nM | 1820 nM | > 10000 nM | 4980 nM | 5010 nM | 1340 nM
6 | CCOc1cc(C(=O)N2CCC(N3CCN(C)CC3)CC2)ccc1Nc1cc2c(cn1)N(C)C(=O)c1ccccc1N2C [Compound 61] | > 10000 nM | 1600 nM | 1090 nM | > 10000 nM | 4240 nM | 2980 nM | 800 nM
